Measured values: ChEMBL document CHEMBL2169756, “Recent results in protein kinase inhibition for tropical diseases” (Bioorg Med Chem Lett, 2012)
≈ marks a conversion by molar mass, not a printed value.

Tests used:
Cdc2-related kinase [1] = target: T1, Cdc2-related kinase (Leishmania major, UniProt O96526); assay: Inhibition of Leishmania major CRK3 expressed in Escherichia coli BL21 (DE3) using 5FAM-GGGRSPGRRRRK-OH as substrate after 60 mins by IMAP assay
T1 sequence (O96526 whole entry): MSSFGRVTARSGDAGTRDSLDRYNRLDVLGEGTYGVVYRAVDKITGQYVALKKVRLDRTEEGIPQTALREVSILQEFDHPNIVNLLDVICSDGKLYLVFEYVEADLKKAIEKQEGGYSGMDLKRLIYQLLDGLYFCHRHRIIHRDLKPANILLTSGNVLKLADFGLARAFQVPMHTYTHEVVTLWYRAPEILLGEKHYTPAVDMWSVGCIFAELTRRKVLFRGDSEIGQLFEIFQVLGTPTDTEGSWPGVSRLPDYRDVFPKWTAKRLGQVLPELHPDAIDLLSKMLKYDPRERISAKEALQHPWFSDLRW

[2] = target: Cyclin-dependent kinase 6 (Homo sapiens, UniProt Q00534); assay: Inhibition of human CDK6
Chain of Cyclin-dependent kinase 6 (Q00534 whole entry): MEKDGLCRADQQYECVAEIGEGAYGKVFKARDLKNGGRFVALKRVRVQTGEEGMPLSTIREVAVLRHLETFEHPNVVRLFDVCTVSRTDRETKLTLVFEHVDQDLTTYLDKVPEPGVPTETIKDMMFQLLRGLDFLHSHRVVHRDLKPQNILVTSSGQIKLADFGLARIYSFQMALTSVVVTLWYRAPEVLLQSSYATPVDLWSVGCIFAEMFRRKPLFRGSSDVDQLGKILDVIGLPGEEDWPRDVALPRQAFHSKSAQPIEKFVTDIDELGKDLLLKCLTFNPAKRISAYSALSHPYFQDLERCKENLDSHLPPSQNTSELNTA

[3] = target: Cyclin-dependent kinase 7 (Homo sapiens, UniProt P50613); assay: Inhibition of human CDK7
Chain of Cyclin-dependent kinase 7 (P50613 whole entry): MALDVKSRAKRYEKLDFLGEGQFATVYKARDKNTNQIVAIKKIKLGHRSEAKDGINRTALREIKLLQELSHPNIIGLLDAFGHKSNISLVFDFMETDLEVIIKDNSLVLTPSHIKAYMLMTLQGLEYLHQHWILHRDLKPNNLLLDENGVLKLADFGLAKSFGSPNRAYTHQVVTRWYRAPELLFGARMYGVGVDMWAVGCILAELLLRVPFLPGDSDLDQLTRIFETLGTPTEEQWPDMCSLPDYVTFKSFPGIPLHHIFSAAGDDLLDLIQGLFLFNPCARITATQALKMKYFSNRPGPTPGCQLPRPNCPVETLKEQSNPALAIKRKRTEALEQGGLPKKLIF

[4] = target: Cyclin-dependent kinase 2 (Homo sapiens, UniProt P24941); assay: Inhibition of human CDK2
[5] = Inhibition of Plasmodium falciparum MPK
[6] = target: Cyclin-dependent kinase 1 (Homo sapiens, UniProt P06493); assay: Inhibition of human CDK1
Chain of Cyclin-dependent kinase 1 (P06493 whole entry): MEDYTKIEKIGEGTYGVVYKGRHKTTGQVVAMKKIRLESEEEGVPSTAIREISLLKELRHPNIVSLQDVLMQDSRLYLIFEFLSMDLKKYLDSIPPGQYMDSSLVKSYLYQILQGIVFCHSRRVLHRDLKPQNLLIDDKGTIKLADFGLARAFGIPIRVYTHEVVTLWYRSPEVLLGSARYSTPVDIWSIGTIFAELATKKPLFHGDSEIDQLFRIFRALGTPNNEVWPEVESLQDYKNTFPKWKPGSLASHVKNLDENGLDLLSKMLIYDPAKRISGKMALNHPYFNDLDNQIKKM

Plasmodium falciparum = assay: Antimalarial activity against Plasmodium falciparum; format: functional, organism-based
[7] = Selectivity ratio of cytotoxicity for […] to IC50 for Mycobacterium tuberculosis H37Rv; format: cell-based
[8] = tested on: Mycobacterium tuberculosis; assay: Antitubercular activity against Mycobacterium tuberculosis H37Rv by high throughput assay; format: functional
[9] = target: cGMP-dependent protein kinase (Plasmodium falciparum, UniProt W7JX98); assay: Inhibition of PKG in Plasmodium falciparum 3D7 microgametes
Chain of cGMP-dependent protein kinase (W7JX98 whole entry): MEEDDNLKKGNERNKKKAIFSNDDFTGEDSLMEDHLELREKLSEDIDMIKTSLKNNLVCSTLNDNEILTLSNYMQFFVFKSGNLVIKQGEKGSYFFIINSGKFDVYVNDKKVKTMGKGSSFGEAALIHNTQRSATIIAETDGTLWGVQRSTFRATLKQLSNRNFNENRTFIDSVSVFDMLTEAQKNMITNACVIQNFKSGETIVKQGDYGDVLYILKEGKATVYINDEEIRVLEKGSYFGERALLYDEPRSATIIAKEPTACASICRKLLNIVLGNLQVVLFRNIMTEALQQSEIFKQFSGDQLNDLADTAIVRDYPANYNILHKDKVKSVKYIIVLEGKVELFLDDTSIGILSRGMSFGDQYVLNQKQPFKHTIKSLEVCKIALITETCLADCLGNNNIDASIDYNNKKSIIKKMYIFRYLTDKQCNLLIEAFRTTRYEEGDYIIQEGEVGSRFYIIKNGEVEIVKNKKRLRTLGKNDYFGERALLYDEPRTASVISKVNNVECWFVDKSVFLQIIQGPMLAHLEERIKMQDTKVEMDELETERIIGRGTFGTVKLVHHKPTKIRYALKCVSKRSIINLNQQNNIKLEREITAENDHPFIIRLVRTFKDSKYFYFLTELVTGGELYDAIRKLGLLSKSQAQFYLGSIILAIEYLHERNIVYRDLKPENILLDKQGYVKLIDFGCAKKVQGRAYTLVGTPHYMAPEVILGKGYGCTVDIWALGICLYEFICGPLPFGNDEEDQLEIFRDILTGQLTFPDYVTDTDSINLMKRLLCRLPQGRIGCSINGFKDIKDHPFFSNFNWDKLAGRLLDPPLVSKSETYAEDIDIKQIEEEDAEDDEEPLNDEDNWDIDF

[10] = target: T2, Calcium-dependent protein kinase 4 (Plasmodium falciparum (isolate 3D7), UniProt Q8IBS5); assay: Inhibition of CDPK4 in Plasmodium falciparum 3D7 microgametes
T2 sequence (Q8IBS5 whole entry): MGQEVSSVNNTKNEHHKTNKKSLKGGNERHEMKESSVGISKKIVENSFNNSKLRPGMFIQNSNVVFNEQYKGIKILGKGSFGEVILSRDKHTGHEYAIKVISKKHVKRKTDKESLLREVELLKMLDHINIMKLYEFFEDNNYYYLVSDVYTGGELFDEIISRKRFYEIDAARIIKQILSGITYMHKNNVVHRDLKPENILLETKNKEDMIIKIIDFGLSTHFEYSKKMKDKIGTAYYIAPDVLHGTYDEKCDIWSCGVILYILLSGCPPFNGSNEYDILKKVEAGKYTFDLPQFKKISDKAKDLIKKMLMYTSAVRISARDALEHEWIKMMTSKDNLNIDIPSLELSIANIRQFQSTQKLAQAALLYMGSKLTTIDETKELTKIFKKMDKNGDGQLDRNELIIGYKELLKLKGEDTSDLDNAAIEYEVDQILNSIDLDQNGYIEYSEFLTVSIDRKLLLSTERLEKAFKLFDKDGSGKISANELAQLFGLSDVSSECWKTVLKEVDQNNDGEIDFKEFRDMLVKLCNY

Toxoplasma gondii = assay: Antiprotozoal activity against Toxoplasma gondii expressing low level of ROP18 infected in human HFF cells; format: functional, organism-based
Leishmania major = assay: Antileishmanial activity against Leishmania major promastigotes; format: functional, organism-based
Cdc2-related kinase [11] = target: T1, Cdc2-related kinase; assay: Inhibition of Leishmania major CRK3 expressed in Escherichia coli BL21 (DE3) after 30 mins by autoradiography
Trypanosoma brucei = assay: Antitrypanosomal activity against Trypanosoma brucei infected in Swiss Webster mouse assessed as cure rate at 20 mg/kg, ip bid administered 4 days post infection; format: functional; settings: route intraperitoneal
Leishmania donovani [12] = assay: Antileishmanial activity against Leishmania donovani MHOM/SD/62/1SCL2D amastigotes after 72 hrs by resazurin reduction assay; format: functional, organism-based
Leishmania donovani [13] = assay: Antileishmanial activity against Leishmania donovani MHOM/SD/62/1SCL2D promastigotes after 72 hrs by resazurin reduction assay; format: functional, organism-based
[14] = tested on: Trypanosoma brucei brucei; assay: Antitrypanosomal activity against procyclic Trypanosoma brucei brucei 29-13 after 72 hrs by resazurin microplate assay; format: functional, organism-based; settings: 29-13, 72 h
[15] = tested on: Trypanosoma brucei brucei; assay: Antitrypanosomal activity against bloodstream form of Trypanosoma brucei brucei 427 after 72 hrs by resazurin microplate assay; format: functional, organism-based; settings: Trypanosoma brucei, 427, 72 h

Work on `COc1cc(-c2ccc3nc(NC(=O)C4CCCCC4)nn3c2)ccc1O` yielded an IC50 (Cdc2-related kinase [1]) of 240 nM.
In the case of `Oc1ccccc1-c1nc(NCc2cccnc2)c2ccccc2n1`, the IC50 (Cdc2-related kinase [1]) is reported as 11000 nM.
For `O=C(CBr)N(c1ccccc1)S(=O)(=O)c1cc(Cl)sc1Cl`, the IC50 [2] was over 20000 nM, the IC50 [3] was over 20000 nM and the IC50 [4] was over 20000 nM. It also gave an IC50 [5] of 600 nM, an IC50 [6] of over 20000 nM and an IC50 (Plasmodium falciparum) of 17000 nM.
`Cc1ccc(N(C(=O)CCl)S(=O)(=O)c2cc(Cl)sc2Cl)cc1` gave an IC50 [5] of 127000 nM.
`O=C(OCn1nnc2ccccc2c1=O)c1ccccc1` gave a selectivity ratio [7] of over 28 and an IC90 [8] of 1.4 µg/mL (≈ 4.98 µM).
`CN1CCC(c2cc(-c3ccncc3)c(-c3ccc(F)cc3)[nH]2)CC1` showed an IC50 [9] of 8 nM.
`CC(C)(C)n1nc(-c2ccc3ccccc3c2)c2c(N)ncnc21` showed an IC50 [10] of 177 nM.
`CC(=O)c1cccc(-c2cnn3ccc(Nc4ccc(N5CCOCC5)cc4)nc23)c1` gave an IC50 (Cdc2-related kinase [1]) of 260 nM.
`CC(C)(C)c1ccc(C(=O)Nc2nnc(-c3cccnc3)o2)cc1` gave a selectivity ratio [7] of over 48 and an IC90 [8] of 0.84 µg/mL (≈ 2.61 µM).
For `COc1ccccc1-c1cnn2c(Nc3cccc(Cl)c3)cc(C)nc12`, the selectivity ratio [7] was 19 and the IC90 [8] was 1.7 µg/mL (≈ 4.66 µM).
In the case of `O=S(=O)(Nc1ccccc1)c1cc(Cl)sc1Cl`, the IC50 [5] is reported as 15000 nM.
With `Cn1c(=O)c(/C=C/c2ccc3c(c2)OCO3)nc2ccccc21` the IC50 (Toxoplasma gondii) was 2 nM.
For `Cc1cc(C)cc(-c2ccc3nc(NC(=O)C4CCCCCC4)n(C)c3c2)c1`, the IC50 (Cdc2-related kinase [1]) was 5 nM.
`COc1ccc(-n2nnc3c(N4CCCC(O)C4)nc(CC4CCCCC4)nc32)cc1` (centres undefined) gave an IC50 (Leishmania major) of 8600 nM and an IC50 (Cdc2-related kinase [11]) of 5300 nM.
`O=C(Nc1nnc(-c2ccco2)o1)c1ccc(Oc2ccccc2)cc1` showed a selectivity ratio [7] of over 75 and an IC90 [8] of under 0.2 µg/mL.
In the case of `CCN(Cc1ccc(/C=C2\C(=O)Nc3ccccc32)o1)S(C)(=O)=O`, the IC50 (Cdc2-related kinase [1]) is reported as 510 nM.
Compound `Cc1cc(C)cc(-c2ccc3nc(NC(=O)C4CCCCC4)nn3c2)c1` has an IC50 (Cdc2-related kinase [1]) of 20 nM.
`Cc1cccc(-c2ccc3nc(NC(=O)C4CCCCC4)nn3c2)c1` showed an IC50 (Cdc2-related kinase [1]) of 60 nM.
In the case of `Cc1ccc(NC(=O)Nc2ccnc(-c3cccnc3)n2)cc1`, the IC50 (Cdc2-related kinase [1]) is reported as 1500 nM.
Work on `COc1ccccc1C(=O)c1cnc(NC2CCN(C(=O)Nc3ccccc3)CC2)nc1N` yielded an Activity (Trypanosoma brucei) of 100%, an IC50 (Leishmania donovani [12]) of 1000 nM and an IC50 (Leishmania donovani [13]) of 1000 nM. It also gave an IC50 [14] of 70 nM and an IC50 [15] of 70 nM.
